Numbered stars: 1 amine (or outer) side, 2 acyl side, 3 side chain; on linkers, the order of the positions; unused ones are H or OH. Bridge positions count the residues as written; N and C are the ends. Square brackets hold non-standard residues; d marks the D form. Peptide text beside a SMILES is read from it. I, II: the chains in the order shown. Diglycolyl = O=C(COCC(=O)[*:2])[*:1]; Dmt = Cc1cc(O)cc(C)c1C[C@H](N)C(=O)O; β3hF = N[C@H](CC(=O)O)Cc1ccccc1; Sar = CNCC(=O)O
Columns and labels:
[1] = SIF assay (stability in simulated intestinal fluid); type: in vitro ADME; conditions: for half-life at 20 μM: simulated intestinal fluid (SIF) with pancreatin, simulated intestinal fluid, pH 6.8, pancreatin, 37° C.
Protocol: SIF was prepared by adding 6.8 g of monobasic potassium phosphate and 10.0 g of pancreatin to 1.0 L of water. After dissolution, the pH was adjusted to 6.8 using NaOH. DMSO stocks (2 mM) were prepared for each of the opioid agonist peptides. Aliquots of the DMSO solutions were dosed into […], each containing 0.5 mL of SIF, which was pre-warmed to 37° C. The final opioid agonist peptide concentration was 20 μM. The vials were kept in a benchtop Thermomixer® for the duration of the experiment. At each timepoint (0, 5, 10, 20, 40, 60, or 360 minutes or 24 hours), 1.0 mL of acetonitrile containing 1% formic acid was added to one vial to terminate the reaction. Samples were stored at 4° C. until the end of the experiment. After the final timepoint was sampled, the tubes were mixed and then centrifuged at 3,000 rpm for 10 minutes. Aliquots of the supernatant were removed, diluted 1:1 into distilled water containing an internal standard, and analyzed by LCMS/MS. The percent of the opioid agonist peptide remaining at each timepoint was calculated based on the peak area response ratio of opioid agonist peptide to the internal standard. Time 0 was set to 100%, and all later timepoints were calculated relative to time 0. Half-lives were calculated by fitting to a first-order exponential decay equation using Graph pad.

[2] = target: T1, δ-opioid receptor (DOR) (Homo sapiens, UniProt P41143); assay: DOR agonist cAMP assay (HitHunter cAMP, forskolin-stimulated); type: cell-based
T1 construct: host or cells: cAMP Hunter CHO-K1 OPRD1 Gαi cell line
Method in brief: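 CHO-K1 Gαi cells expressing OPRM1 or OPRD1 were exposed 30 min at 37° C to 11-point threefold agonist dilutions, in duplicate, with 20 uM forskolin final. cAMP quantified by EFC chemiluminescent competitive immunoassay against cAMP standards. EC50 by four-parameter Hill nonlinear regression.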

[3] = target: T2, μ-opioid receptor (MOR) (Homo sapiens, UniProt P35372); assay: MOR agonist cAMP assay (HitHunter cAMP, forskolin-stimulated); type: cell-based
T2 construct: host or cells: cAMP Hunter CHO-K1 OPRM1 Gαi cell line
Protocol: The HitHunter® cAMP chemiluminescent assay kit (DiscoveRx, Cat# 90-0075 SM25) was used to detect cAMP production in cAMP Hunter™ Gαi cell lines over expressing either Human-ORPM1 (Discoverx, Catalog# 95-0107C2) or Human-ORPD1 (DiscoveRx, Catalog# 95-0108C2). Opioid agonist binding to the Gαi receptors inhibits the intracellular cAMP accumulation induced by forskolin, which activates adenylate cyclase and increases intracellular levels of cAMP.
Cells were cultured in media consisting of Ham's F-12 Nutrient Mix (Life Technologies, Catalog#31765035), 10% FBS (Life Technologies, Catalog# 16140-071), 4 mM GlutaMAX (Life Technologies, Catalog#35050-061), […] (Life Technologies), 100 ug/ml of Penn-Strep (Life Technologies) and 0.5 mg/ml Geneticin (Life Technologies, Catalog# 10131-027). The cultures were maintained at 37° C. under 5% CO2.
In preparation for cAMP assay, the cells were seeded at a density of 300,000 cells/ml in 100 ul of media/well in 96-well microplate. Wells that were designated for cAMP standards were left empty.
Opioid agonist serial dilutions were prepared in separate dilution plate (11-point series of 3× (3-fold) dilution) in Cell Assay buffer, including 3× forskolin for Gαi target. For Hunter CHO-K1 OPRM1 or CHO-K1 OPRD1 Gαi Cell Lines, the final forskolin concentration was 20 uM.
15 ul of each 3× opioid agonist serial dilution was added in the presence of forskolin in duplicate to the designated wells. The final concentration of each dilution was at 3× of the final screening concentration. The assay plate was incubated for 30 min, at 37° C. under 5% CO2.
Cellular cAMP concentrations were measured using the HitHunter cAMP Assay kit following the manufacturer's protocol. HitHunter cAMP assay is a gain-of-signal competitive immunoassay based on Enzyme Fragment Complementation (EFC) technology. The kit uses β-galactosidase (β-gal) enzyme split into Enzyme Donor (ED) and Enzyme Acceptor (EA). The cellular cAMP and ED-labelled cAMP compete for anti-cAMP antibody. […] When cellular cAMP level is high, it competes for the anti-cAMP antibody, thereby releasing ED-cAMP to complement with EA to produce a luminescent signal. The amount of signal is directly proportional to the amount of cAMP in cells and can be quantified using cAMP standards. The assay plates were read using a PerkinElmer Envision instrument to detect the chemiluminescence signal in each well (luminescence reader at 0.1 to 1 second/well). Data analysis was performed using Graphpad Prism 7.EC50 was calculated by nonlinear regression, using the four-parameter hill equation.

T2 sequence (P35372 whole entry): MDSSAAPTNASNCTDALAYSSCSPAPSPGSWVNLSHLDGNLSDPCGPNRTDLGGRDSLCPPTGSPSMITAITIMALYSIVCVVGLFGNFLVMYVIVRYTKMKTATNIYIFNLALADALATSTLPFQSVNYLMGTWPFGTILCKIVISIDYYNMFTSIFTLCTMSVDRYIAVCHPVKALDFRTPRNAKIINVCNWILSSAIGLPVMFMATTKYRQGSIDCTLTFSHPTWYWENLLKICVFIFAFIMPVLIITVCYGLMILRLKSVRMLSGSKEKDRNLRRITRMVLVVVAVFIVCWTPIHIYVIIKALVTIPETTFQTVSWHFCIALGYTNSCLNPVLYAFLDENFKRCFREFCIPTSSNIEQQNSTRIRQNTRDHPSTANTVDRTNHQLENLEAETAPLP
T1 sequence (P41143 whole entry): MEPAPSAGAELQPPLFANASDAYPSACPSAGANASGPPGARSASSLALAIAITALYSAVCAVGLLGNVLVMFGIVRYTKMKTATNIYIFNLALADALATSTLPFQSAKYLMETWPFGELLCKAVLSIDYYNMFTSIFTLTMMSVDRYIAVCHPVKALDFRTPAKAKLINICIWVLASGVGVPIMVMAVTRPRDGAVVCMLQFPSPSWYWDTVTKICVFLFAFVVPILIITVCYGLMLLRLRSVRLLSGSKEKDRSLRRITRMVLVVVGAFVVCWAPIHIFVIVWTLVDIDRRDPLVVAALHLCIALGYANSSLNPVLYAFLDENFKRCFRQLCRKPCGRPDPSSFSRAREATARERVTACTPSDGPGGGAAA

Row | Structure (SMILES) | half-life at 20 μM [1] | EC50 [2] | SIF (min) ([1]; Table 4, SIF half-life) | EC50 [3]
1 | CN[C@@H](Cc1ccc(O)cc1)C(=O)N[C@H](C)C(=O)NCC(=O)N[C@H](CC(=O)N(C)CC(N)=O)Cc1ccccc1 [compound 51] | 6 to 24 h | > 200 nM |  | 
2 | Cc1cc(C(N)=O)cc(C)c1C[C@H](N)C(=O)N[C@H](C)C(=O)NCC(=O)N[C@H](CC(=O)N(C)CC(N)=O)Cc1ccccc1 [Seq. ID 70, H-Phe(2,6-dimethyl-4-CONH2)-a-G-bhF-Sar-NH2] |  |  | **** (for SIF half-life values, **** indicates >1290) | 
3 | C[C@@H](NC(=O)[C@H](N)Cc1ccc(O)cc1)C(=O)NCC(=O)N[C@H](CC(=O)N(C)CC(N)=O)Cc1ccccc1 [compound 53] | 6 to 24 h | > 200 nM |  | 
4 | C[C@@H](NC(=O)[C@@H](N)CCc1ccc(O)cc1)C(=O)NCC(=O)N[C@H](CC(=O)N(C)CC(N)=O)Cc1ccccc1 [compound 54] | 6 to 24 h | > 200 nM |  | 
5 | Cc1cc(O)cc(C)c1C[C@H](N)C(=O)N[C@H](C)C(=O)NCC(=O)N[C@H](CC(=O)N(C)[C@H](C(=O)O)c1ccccc1)Cc1ccccc1 [compound 157] | > 24 h | < 1 nM |  | < 1 nM
6 | C[C@@H](NC(=O)[C@@H](N)Cc1ccc(O)c(C(C)(C)C)c1)C(=O)NCC(=O)N[C@H](CC(=O)N(C)CC(N)=O)Cc1ccccc1 [compound 52] | 6 to 24 h | > 200 nM |  | 
7 | C[C@@H](NC(=O)C[C@@H](N)Cc1ccc(O)cc1)C(=O)NCC(=O)N[C@H](CC(=O)N(C)CC(N)=O)Cc1ccccc1 [compound 50] | 6 to 24 h | > 200 nM |  | 
8 | C[C@@H](NC(=O)[C@@H](N)Cc1ccc(O)c(O)c1)C(=O)NCC(=O)N[C@H](CC(=O)N(C)CC(N)=O)Cc1ccccc1 [compound 58] | 6 to 24 h |  |  | 
9 | C[C@@H](NC(=O)[C@@H](N)Cc1cccc(O)c1)C(=O)NCC(=O)N[C@H](CC(=O)N(C)CC(N)=O)Cc1ccccc1 [compound 56] | 6 to 24 h | > 200 nM |  | 
10 | Cc1cc(O)cc(C)c1C[C@H](N)C(=O)N[C@H](C)C(=O)NCC(=O)N[C@H](CC(=O)N(C)[C@@H](Cc1ccccc1)C(=O)O)Cc1ccccc1 [compound 158] |  | < 1 nM |  | < 1 nM
11 | Cc1cc(O)cc(C)c1C[C@H](N)C(=O)N[C@H](CCCNC(=N)N)C(=O)N[C@@H](Cc1ccccc1)C(=O)N(C)[C@@H](CCCCN)C(N)=O [compound 5] |  | > 200 nM |  | < 1 nM
12 | Cc1cc(O)cc(C)c1C[C@H](N)C(=O)N[C@H](CCCNC(=N)N)C(=O)N[C@@H](CCc1ccccc1)C(=O)N(C)CCC(=O)O [compound 12] |  | < 1 nM |  | < 1 nM
13 | Cc1cc(C(N)=O)cc(C)c1C[C@H](N)C(=O)N[C@@H](C)C(=O)NCC(=O)N[C@H](CC(=O)N(C)CC(=O)O)Cc1ccccc1 [compound 80] |  | 50 to 200 nM |  | 1 to 10 nM
14 | Cc1cc(O)cc(C)c1C[C@H](N)C(=O)N[C@H](C)C(=O)NCC(=O)N[C@H](CC(=O)N(C)CC(=O)N[C@H](CCCCNC(=O)COCC(=O)NCCCC[C@@H](NC(=O)CN(C)C(=O)C[C@H](Cc1ccccc1)NC(=O)CNC(=O)[C@@H](C)NC(=O)[C@@H](N)Cc1c(C)cc(O)cc1C)C(N)=O)C(N)=O)Cc1ccccc1 [compound 271] (I: H-[Dmt][dA]G[β3hF][Sar][dK]-NH2 / II: H-[Dmt][dA]G[β3hF][Sar][dK]-NH2; linker I:6-II:6 via Diglycolyl) |  | 1 to 10 nM |  | 1 to 10 nM
15 | C[C@@H](NC(=O)[C@@H](N)Cc1ccc(O)c(Cl)c1)C(=O)NCC(=O)N[C@H](CC(=O)N(C)CC(N)=O)Cc1ccccc1 [compound 55] | 6 to 24 h | 10 to 50 nM |  | 

Reference: patent US10278957B2, “Opioid agonist peptides and uses thereof” (Protagonist Therapeutics, Inc., priority 2017, dated 2019)
